Results published in patent US6440946B1, “Multiple-agents-binding compound, production and use thereof” (Takeda Chemical Industries, Ltd., priority 1999, dated 2002).

Experiments:
recombinant HIV protease = target: T1, recombinant HIV protease (Human immunodeficiency virus type 1 group M subtype B, UniProt P12497); assay: HIV protease inhibitory activity (cleavage of synthetic nonapeptide substrate, reverse phase HPLC); assay type: biochemical; conditions: pH5.5, 37° C., 60 minutes; for Inhibition of HIV protease (inhibitory rate) / inhibition at 5 µM: final concentration of Test Compound 5 μM; for inhibition at 5 µM: read-out: Inhibition of HIV protease (inhibitory rate)
T1 construct: Instead of natural HIV protease, recombinant HIV protease already reported in the literature
Procedure: HIV protease inhibitory activity of the compounds of the present invention [Compounds of Working Examples 1-7] was evaluated according to the test method already reported in the literature (Journal of Synthetic Organic Chemistry, Japan, 52,403-412 (1994), Japanese Patent Unexamined Publication No. 1993-170722, etc.). In addition, using Compounds of Reference Examples 1-4, similar test was carried out.
Instead of natural HIV protease, recombinant HIV protease already reported in the literature (cf. Science, 230, 949 (1985)) was used for the evaluation of HIV protease inhibitory activity (cf. Japanese Patent Unexamined Publication No. 1993-170722, etc.). As the substrate of said recombinant HIV protease, synthetic nonapeptide substrate (Ac-Arg-Ala-Ser-Gln-Asn-Tyr-Pro-Val-Val-NH2 trifluoroacetate) was used, and protease activity was determined.
Fifteen μl of the reaction solution containing 100 mM (final concentration) of MES buffer solution (pH5.5), 40 mM of said substrate, 9.2 μg of said recombinant HIV protease, and various concentration of Test Compound (for example, Test Compound was previously dissolved in DMSO, etc.) was used, and the reaction was started after said recombinant HIV protease had been added to the reaction solution. The reaction was carried out at 37° C. for 60 minutes, and then, the reaction was stopped by addition of 15 μl of acetonitrile. The amount of the peptide fragment produced by cleaving the substrate between -Tyr . . . Pro- of said substrate was determined according to the internal standard method of reverse phase HPLC. When the concentration of test compound was zero, protease activity was defined as 100%; when the peptide fragment was not detected, remaining protease activity was defined as 0%; and remaining protease activity was calculated based on the determined concentration of the peptide fragment. When the remaining protease activity was 0%, inhibition rate which indicates activity inhibiting HIV protease was defined as 100%, and the inhibition rate was defined according to the value taken the remaining protease activity indicated by said percentage from 100%.
(§1) The results of HIV protease inhibitory activity and anti-HIV activity of the compound of the present invention evaluated by the above-mentioned methods were shown in Table 1, together with the results of Compound of Reference Example. In Table 1, HIV protease inhibitory activity is shown as the inhibitory rate when the final concentration of Test Compound in the reaction solution was 5 μM, and the values in parentheses correspond to the inhibitory rate when the final concentration of Test Compound in the reaction solution was 50 nM.

[1] = test system: HIV-1 IIIB (HTLV-IIIB) virus in CEMM-SS cells; assay: Anti-HIV activity: prevention of death of HIV-infected T cell lymphocytes (MTT method); assay type: cell-based, HIV type 1 virus; conditions: 6 days
Procedure: Anti-HIV activity of the compounds of the present invention was evaluated according to the method described below.
The inhibitory effect on virus particle formation of HIV virus with which T cell lymphocytes were infected was evaluated according to ability to prevent T cell lymphocytes infected with said HIV virus from dying.
According to the test method described in the literature (O. S. Weislow et al., J. Natl. Cancer Inst., 81, 577 (1989), etc.), anti-HIV activity of the compounds of the present invention was evaluated. As the T cell lymphocytes, CEMM-SS cells were used. As the HIV virus, HIV-1 IIIB (HTLV-IIIB) virus which is HIV type 1 virus was used. On 96 well microtiter plate containing 200 μl of culture medium (RPMI-1640 medium containing 50 μg/ml of gentamicin and 10% fetal calf serum), determined concentration of Test Compound and HIV-1 IIIB virus (the mount of virus per well is that necessary for completely killing infected cells 6 days after infection), CEMM-SS cell (2.5×10^4 cells/ml) were inoculated and cultivated at 37° C. for 6 days in the incubator containing 5% CO2. Thereafter, the number of living cells was determined by the MTT method (R. Pauwels et al., J. Virol. Methods, 20, 309 (1988), etc.), and the determined value was defined as (ODT)HIV. HIV-non-infected CEMM-SS cells and HIV-infected CEMM-SS cells were respectively cultivated under the same conditions provided that the concentration of Test Compound was zero. Thereafter, the number of living cells was determined, and the respectively determined value was defined as (ODC)MOCK and (ODC)HIV. Using these values, (ODT)HIV, (ODC)MOCK and (ODC)HIV, inhibitory rate, ratio preventing T cell lymphocytes infected with said HIV virus from dying, was calculated according to the following formula:
[(ODT)HIV−(ODC)HIV][/(ODC)MOCK−(ODC)HIV]
Based on EC50 which is the concentration of Test Compound making the calculated inhibitory rate 50%, anti-HIV activity was evaluated.
as §1

[2] = final concentration of Test Compound 50 nM
[3] = Human immunodeficiency virus 1, 144 h

| SMILES | Inhibition of HIV protease (inhibitory rate, values in parentheses) (recombinant HIV protease; [2]) | Inhibition of HIV protease (inhibitory rate) (recombinant HIV protease) | EC50 [1, 3] | other results |
| --- | --- | --- | --- | --- |
| Cc1ccccc1CNC(=O)[C@H]1N(C(=O)[C@@H](O)[C@H](Cc2ccccc2)NC(=O)CC(C)(C)C(=O)O)CSC1(C)C [Ref. Ex. 4, (R)-N-(2-methylbenzyl)-3-[(2S,3S)-3-(3,3-dimethylsuccinyl)amino-2-hydroxy-4-phenylbutyryl]-5,5-dimethyl-1,3-thiazolidine-4-carboxamide] | (78%) | 100% | – | – |
| Cc1ccccc1CNC(=O)[C@H]1N(C(=O)[C@@H](O)[C@H](Cc2ccccc2)NC(=O)C(C)C(C)C(=O)OC[C@H]2O[C@@H](n3cc(C)c(=O)[nH]c3=O)CC2N=[N+]=[N-])CSC1(C)C (stereo partly drawn) [Working Ex. 7, {(2S,5R)-3-azido-5-[5-methyl-2,4-dioxo-3,4-dihydro-1(2H)-pyrimidinyl]tetrahydro-2-furanyl}methyl 4-([(1S,2S)-1-benzyl-3-((4R)-5,5-dimethyl-4-{[(2-methylbenzyl)amino]carbonyl}-1,3-thiazolidin-3-yl)-2-hydroxy-3-oxopropyl]amino}-2,3-dimethyl-4-oxobutanoate] | – | – | 7.3 nM | inhibition at 0.05 µM (recombinant HIV protease; pH 5.5, final concentration of Test Compound 50 nM, read-out: Inhibition of HIV protease (inhibitory rate, values in parentheses)): 39%; inhibition at 5 µM (recombinant HIV protease; pH 5.5): 96% |
| Cc1ccccc1CNC(=O)[C@@H]1CSCN1C(=O)[C@@H](O)[C@H](Cc1ccccc1)NC(=O)CC(C)(C)C(=O)OC[C@H]1O[C@@H](n2cc(C)c(=O)[nH]c2=O)CC1N=[N+]=[N-] (some centres unmarked) [Working Ex. 4] | – | 11% | – | EC50 [1]: 3.8 nM |
| Cc1ccccc1CNC(=O)[C@@H]1CSCN1C(=O)[C@@H](O)[C@H](Cc1ccccc1)NC(=O)C(C)C(C)C(=O)OC[C@H]1O[C@@H](n2cc(C)c(=O)[nH]c2=O)CC1N=[N+]=[N-] (stereo partly drawn) [Working Ex. 5, {(2S,5R)-3-azido-5-[5-methyl-2,4-dioxo-3,4-dihydro-1(2H)-pyrimidinyl]tetrahydro-2-furanyl}methyl 4-([(1S,2S)-1-benzyl-2-hydroxy-3-((4R)-4-([(2-methylbenzyl)amino]carbonyl}-1,3-thiazolidin-3-yl)-3-oxopropyl]amino)-2,3-dimethyl-4-oxobutanoate] | – | – | 8.9 nM | inhibition at 5 µM (recombinant HIV protease; pH 5.5): 57% |
| Cc1cn([C@H]2C[C@H](N=[N+]=[N-])[C@@H](CO)O2)c(=O)[nH]c1=O [AZT, 3′-azido-3′-deoxythymidine, reference compound] | – | – | 11 nM | – |
| Cc1ccccc1CNC(=O)[C@H]1N(C(=O)[C@@H](O)[C@H](Cc2ccccc2)NC(=O)CC(C)(C)C(=O)OC[C@H]2O[C@@H](n3cc(C)c(=O)[nH]c3=O)CC2N=[N+]=[N-])CSC1(C)C (some centres unmarked) [Working Ex. 6] | – | 83% | – | EC50 [1]: 0.24 nM |
| CC(C)(C)NC(=O)[C@@H]1CSCN1C(=O)[C@@H](O)[C@H](Cc1ccccc1)NC(=O)CC(C)(C)C(=O)O [Ref. Ex. 1, (R)-N-t-butyl-3-[(2S,3S)-3-(3,3-dimethylsuccinyl)amino-2-hydroxy-4-phenylbutyryl]-1,3-thiazolidine-4-carboxamide] | (20%) | 93% | – | – |
| Cc1ccccc1CNC(=O)[C@@H]1CSCN1C(=O)[C@@H](O)[C@H](Cc1ccccc1)NC(=O)CC(C)(C)C(=O)O [Ref. Ex. 3, (R)-N-(2-methylbenzyl)-3-[(2S,3S)-3-(3,3-dimethylsuccinyl)amino-2-hydroxy-4-phenylbutyryl]-1,3-thiazolidine-4-carboxamide] | – | 87% | – | – |
| CC(C)(C)NC(=O)[C@H]1N(C(=O)[C@@H](O)[C@H](Cc2ccccc2)NC(=O)CC(C)(C)C(=O)O)CSC1(C)C [Ref. Ex. 2, (R)-N-t-butyl-3-[(2S,3S)-3-(3,3-dimethylsuccinyl)amino-2-hydroxy-4-phenylbutyryl]-5,5-dimethyl-1,3-thiazolidine-4-carboxamide] | (76%) | 99% | – | – |
